{"source": "patent US10112933B2", "about": "“Methods and compositions for treatment of fibrosis” (Baylor College of Medicine, priority 2013, dated 2018)", "key": {"murine lung fibroblasts": {"test_system": "murine lung fibroblasts", "experiment": "Myofibroblast differentiation of lung fibroblasts", "type": "cell-based", "protocol": "(§1) The role of STAT3 in EMT and myofibroblast differentiation was determined by using […]-9 in tissue culture experiments with alveolar epithelial cells (AEC; MLE-12 and primary AEC) and murine lung fibroblasts. […] […]-9 prevented TGF-beta and IL-6/sIL-6R-alpha induced EMT of AEC assessed by Col1a, alpha-SMA, Twist, and Snail mRNA levels and reduced myofibroblast differentiation as assessed by Col1a and alpha-SMA mRNA levels."}, "[1]": {"test_system": "alveolar epithelial cells (MLE-12 and primary AEC)", "experiment": "TGF-beta and IL-6/sIL-6R-alpha induced EMT of alveolar epithelial cells", "type": "cell-based", "protocol": "as §1"}, "skin fibrosis": {"test_system": "skin fibrosis", "experiment": "Subcutaneous bleomycin mouse model of skin fibrosis", "type": "in vivo", "conditions": "intraperitoneal treatment days 14-28 of the 4 week model", "protocol": "FIG. 20 illustrates an exemplary study design using a subcutaneous (SQ) bleomycin model for skin fibrosis. In a basic model, bleomycin is administered to wild type mice (C57/Bl6) via subcutaneous injection 5 days a week for a total of 4 weeks. PBS is used as a control for the bleomycin. Fibrosis is assessed in the biopsied skin on day 28. Fibrosis is assessed using histology (hematoxylin and eosin stain), where the dermal thickness is quantified as the average linear distance from the dermis-epidermis junction to the subQ muscle layer. Masson's trichrome staining is also performed to stain collagen blue. Immunohistochemistry is performed for alpha-smooth muscle actin, the marker of the myofibroblasts (cell that makes collagen during the process of fibrosis). Future endpoints are assessed including collagen content. To illustrate that STAT3 inhibitor is a useful therapy at least for dermal fibrosis, an example of a STAT3 inhibitor (C188-9) was given via the intraperitoneal route daily, starting in week 3 of the bleomycin model. DMSO was used as a control for the STAT3 inhibitor."}}, "data": [{"smiles": "COc1ccc(S(=O)(=O)Nc2cc(-c3c(O)ccc4ccccc34)c(O)c3ccccc23)cc1", "note": "[C188-9, N-(1′,2-dihydroxy-1,2′-binaphthalen-4′-yl)-4-methoxybenzenesulfonamide]", "values": [{"measurement": "myofibroblast differentiation (Col1a and alpha-SMA mRNA levels)", "setting": "murine lung fibroblasts", "value": "reduced"}, {"measurement": "TGF-beta and IL-6/sIL-6R-alpha induced EMT of AEC (Col1a, alpha-SMA, Twist, Snail mRNA levels)", "setting": "[1]", "value": "prevented"}, {"measurement": "bleomycin-induced increase of dermal fibrotic gene expression (Acta2, Col1a1, Col1a2 transcripts), RT-PCR", "setting": "skin fibrosis", "value": "blunted"}]}]}
